Data: ChEMBL document CHEMBL4699511, “Cedrol, a Sesquiterpene Alcohol, Enhances the Anticancer Efficacy of Temozolomide in Attenuating Drug Resistance via Regulation of the DNA Damage Response and MGMT Expression” (J Nat Prod, 2020)
pIC50: −log10 of the molar value.

Legend:
[1] = Cytotoxicity against rat CTX TNA2 cells assessed as reduction in cell viability after 72 hrs by MTT assay; assay type: cell-based; details: CTX TNA2, 72 h
RG2 [2] = test: Induction of cell cycle arrest in rat RG2 cells assessed as CDK2 expression at 206 uM after 48 hrs by Western blot analysis (reference value: 1); assay type: functional
[3] = Effect on AKT expression in rat RG2 cells at 206 uM after 48 hrs by Western blot analysis (reference value: 1); assay type: functional
RG2 [4] = test: Induction of cell cycle arrest in rat RG2 cells assessed as accumulation at G2/M phase at 206 uM after 12 hrs by propidium iodide staining based flow cytometric analysis (reference value: 20.04 +/- 0.55%); assay type: functional
DBTRG-05MG [5] = test: Induction of DNA damage in human DBTRG-05MG cells assessed as ATR phosphorylation at ser428 residues at 206 uM after 48 hrs by Western blot analysis (reference value: 1); assay type: functional
[6] = Cytotoxicity against rat CTX TNA2 cells assessed as reduction in cell viability after 48 hrs by MTT assay; assay type: cell-based; details: CTX TNA2, 48 h
RG2 [7] = test: Cytotoxicity against rat RG2 cells assessed as reduction in cell viability after 48 hrs by MTT assay; assay type: functional, cell-based; details: for pIC50: RG2, 48 h
DBTRG-05MG [8] = test: Induction of DNA damage in human DBTRG-05MG cells assessed as ATM phosphorylation at ser1981 residues at 206 uM after 48 hrs by Western blot analysis (reference value: 1); assay type: functional
[9] = Cytotoxicity against rat CTX TNA2 cells assessed as reduction in cell viability after 24 hrs by MTT assay; assay type: cell-based; details: CTX TNA2, 24 h
RG2 [10] = test: Cytotoxicity against rat RG2 cells assessed as reduction in cell viability after 24 hrs by MTT assay; assay type: functional, cell-based; details: for pIC50: RG2, 24 h
DBTRG-05MG [11] = test: Induction of cell cycle arrest in human DBTRG-05MG cells assessed as accumulation at G2/M phase at 206 uM after 12 hrs by propidium iodide staining based flow cytometric analysis (reference value: 30.08 +/- 0.1%); assay type: functional
DBTRG-05MG [12] = test: Cytotoxicity against human DBTRG-05MG cells assessed as reduction in cell viability after 24 hrs by MTT assay; assay type: functional, cell-based
DBTRG-05MG [13] = test: Cytotoxicity against human DBTRG-05MG cells assessed as reduction in cell viability after 48 hrs by MTT assay; assay type: functional, cell-based
DBTRG-05MG [14] = test: Cytotoxicity against human DBTRG-05MG cells assessed as reduction in cell viability after 72 hrs by MTT assay; assay type: functional, cell-based
[15] = Toxicity in BALB/c mouse xenografted with DBTRG-05MG cells assessed as reduction in body weight at 5 mg/kg, ip after 5 days measured every 2 days; assay type: organism-based; details: in vivo, 120 h, time 5 day
DBTRG-05MG [16] = test: Induction of apoptosis in human DBTRG-05MG cells assessed as phosphorylated PARP expression at 206 uM after 48 hrs by Western blot analysis (reference value: 1); assay type: functional
RG2 [17] = test: Induction of cell cycle arrest in rat RG2 cells assessed as accumulation at G2/M phase at 206 uM after 48 hrs by propidium iodide staining based flow cytometric analysis (reference value: 20.04 +/- 0.55%); assay type: functional
RG2 [18] = test: Cytotoxicity against rat RG2 cells assessed as reduction in cell viability after 72 hrs by MTT assay; assay type: functional, cell-based; details: for pIC50: RG2, 72 h
RG2 [19] = test: Inhibition of p38 phosphorylation at Tyr182 residues in rat RG2 cells at 206 uM after 48 hrs by Western blot analysis (reference value: 1); assay type: cell-based
DBTRG-05MG [20] = test: Induction of DNA damage in human DBTRG-05MG cells assessed as ATM phosphorylation at ser1981 residues at 112.4 uM after 48 hrs by Western blot analysis (reference value: 1); assay type: functional
[21] = Inhibition of TMZ-induced drug resistance in human DBTRG-05MG cells assessed as MDR1 expression at 112.4 uM after 48 hrs by Western blot analysis (reference value: 1.5); assay type: functional
DBTRG-05MG [22] = test: Induction of DNA damage in human DBTRG-05MG cells assessed as ATR phosphorylation at ser428 residues at 112.4 uM after 48 hrs by Western blot analysis (reference value: 1); assay type: functional
DBTRG-05MG [23] = test: Induction of DNA damage in human DBTRG-05MG cells assessed as Chk2 phosphorylation at Thr68 residues at 112.4 uM after 48 hrs by Western blot analysis (reference value: 1); assay type: functional
[24] = Toxicity in BALB/c mouse xenografted with DBTRG-05MG cells assessed as inflammatory cell infiltration score in liver at 5 mg/kg, ip for 5 days by H and E staining-based bright field microscopic analysis; assay type: organism-based; details: in vivo, 120 h, time 5 day
DBTRG-05MG [25] = test: Induction of apoptosis in human DBTRG-05MG cells assessed as Bax expression at 112.4 uM after 48 hrs by Western blot analysis (reference value: 1); assay type: functional
DBTRG-05MG [26] = test: Induction of cell cycle arrest in human DBTRG-05MG cells assessed as CyclinA expression at 112.4 uM after 48 hrs by Western blot analysis (reference value: 1); assay type: functional
RG2 [27] = test: Induction of cell cycle arrest in rat RG2 cells assessed as accumulation at S phase at 112.4 uM after 12 hrs in presence of TMZ by propidium iodide staining based flow cytometric analysis (reference value: 20.15 +/- 2.44%); assay type: functional
DBTRG-05MG [28] = test: Induction of cell cycle arrest in human DBTRG-05MG cells assessed as p21 expression at 112.4 uM after 48 hrs in presence of TMZ by Western blot analysis (reference value: 1); assay type: functional
RG2 [29] = test: Synergistic cytotoxicity against rat RG2 cells assessed as combination index at 89.9 uM after 48 hrs in presence of 412.1 uM TMZ by MTT assay; assay type: functional
DBTRG-05MG [30] = test: Synergistic cytotoxicity against human DBTRG-05MG cells assessed as combination index at 134.9 uM after 48 hrs in presence of 515.1 uM TMZ by MTT assay; assay type: functional
DBTRG-05MG [31] = test: Induction of cell cycle arrest in human DBTRG-05MG cells assessed as accumulation at S phase at 112.4 uM after 6 hrs by propidium iodide staining based flow cytometric analysis (reference value: 22.76 +/- 1.56%); assay type: functional
RG2 [32] = test: Induction of apoptosis in rat RG2 cells assessed as cleaved caspace-3 expression at 112.4 uM after 48 hrs in presence of TMZ by Western blot analysis (reference value: 1); assay type: functional
RG2 [33] = test: Inhibition of p38 phosphorylation at Tyr182 residues in rat RG2 cells at 112.4uM after 48 hrs in presence of TMZ by Western blot analysis (reference value: 1); assay type: cell-based
RG2 [34] = test: Induction of apoptosis in rat RG2 cells assessed as Bcl2 expression at 112.4 uM after 48 hrs by Western blot analysis (reference value: 1); assay type: functional
[35] = Inhibition of TMZ-induced drug resistance in rat RG2 cells assessed as MGMT expression at 112.4 uM after 48 hrs by Western blot analysis (reference value: 2); assay type: functional
RG2 [36] = test: Inhibition of ERK phosphorylation at Tyr204 residues in rat RG2 cells at 112.4uM after 48 hrs in presence of TMZ by Western blot analysis (reference value: 1); assay type: cell-based

## Cn1nnc2c(C(N)=O)ncn2c1=O [TEMOZOLOMIDE]
[1]
  pIC50: 3.37
RG2 [2]
  fold change (FC): 0.9
[3]
  fold change (FC): 0.6
RG2 [4]
  Activity: 28.32%
DBTRG-05MG [5]
  fold change (FC): 1.5
[6]
  pIC50: 3.31
RG2 [7]
  pIC50: 3.46
DBTRG-05MG [8]
  fold change (FC): 2.8
[9]
  pIC50: 3.18
RG2 [10]
  pIC50: 3.02
DBTRG-05MG [11]
  Activity: 35.43%
DBTRG-05MG [12]
  pIC50: 3.01
DBTRG-05MG [13]
  pIC50: 3.45
DBTRG-05MG [14]
  pIC50: 3.92
[15]
  Activity: Non-Toxic
DBTRG-05MG [16]
  fold change (FC): 0.4
RG2 [17]
  Activity: 54.71%
RG2 [18]
  pIC50: 3.97
RG2 [19]
  fold change (FC): 1.3

## C[C@@H]1CC[C@H]2C(C)(C)[C@H]3C[C@@]12CC[C@@]3(C)O [CEDROL]
DBTRG-05MG [20]
  fold change (FC): 1.8
[1]
  pIC50: 3.59
[21]
  fold change (FC): 0.7
DBTRG-05MG [22]
  fold change (FC): 1.5
DBTRG-05MG [23]
  fold change (FC): 1.9
[24]
  Activity: 2.38
[6]
  pIC50: 3.55
RG2 [7]
  Activity: Dose-dependent effect
  pIC50: 4.03
DBTRG-05MG [25]
  fold change (FC): 1.3
DBTRG-05MG [26]
  fold change (FC): 0.6
RG2 [27]
  Activity: 21.29%
DBTRG-05MG [28]
  fold change (FC): 2.7
[9]
  pIC50: 3.62
RG2 [10]
  Activity: Dose-dependent effect
  pIC50: 3.97
DBTRG-05MG [12]
  Activity: Dose-dependent effect
  pIC50: 3.93
RG2 [29]
  CI: 1.34
DBTRG-05MG [30]
  CI: 0.68
DBTRG-05MG [31]
  Activity: 16.38%
DBTRG-05MG [13]
  Activity: Dose-dependent effect
  pIC50: 3.99
DBTRG-05MG [14]
  Activity: Dose-dependent effect
  pIC50: 3.97
RG2 [18]
  Activity: Dose-dependent effect
  pIC50: 4.05
RG2 [32]
  fold change (FC): 3.3
RG2 [33]
  fold change (FC): 1.8
RG2 [34]
  fold change (FC): 1.1
[35]
  fold change (FC): 0.5
RG2 [36]
  fold change (FC): 0.3
